Experimental data as given in the supplement of paper PMC10307832.

Tests used:
Assay in all cases: relative viability (nuclei count vs DMSO), 5 days (fraction); higher = more cells survive
Gemcitabine + Luminespib = compound: Nc1ccn([C@@H]2O[C@H](CO)[C@@H](O)C2(F)F)c(=O)n1 [Gemcitabine] + CCNC(=O)c1noc(-c2cc(C(C)C)c(O)cc2O)c1-c1ccc(CN2CCOCC2)cc1 [Luminespib] (partner 0.01 µM)
How it was run: (§1)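 Nuclei were stained with Hoechst during a one-step fixation (final 0.05% Triton X-100, 1% formaldehyde, 1 ug/ml Hoechst) carried out 5 days after dosing, then counted on 4× images. The cells, lung cancer lines in 1536-well plates, had been dosed by pin tool the day after seeding with one drug alone or a fixed anchor-drug dose plus five library-drug doses (not always all listed) in √10 steps. Relative viability is the nuclei count in treated wells divided by that in vehicle wells, and each value is the median of duplicate plates.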

Gemcitabine + Lapatinib = compound: Nc1ccn([C@@H]2O[C@H](CO)[C@@H](O)C2(F)F)c(=O)n1 [Gemcitabine] + CS(=O)(=O)CCNCc1ccc(-c2ccc3ncnc(Nc4ccc(OCc5cccc(F)c5)c(Cl)c4)c3c2)o1 [Lapatinib] (partner 2 µM)
How it was run: as §1

Gemcitabine + Decitabine = compound: Nc1ccn([C@@H]2O[C@H](CO)[C@@H](O)C2(F)F)c(=O)n1 [Gemcitabine] + Nc1ncn([C@H]2C[C@H](O)[C@@H](CO)O2)c(=O)n1 [Decitabine] (partner 2 µM)
How it was run: as §1

Gemcitabine + Olaparib = compound: Nc1ccn([C@@H]2O[C@H](CO)[C@@H](O)C2(F)F)c(=O)n1 [Gemcitabine] + O=C(c1cc(Cc2n[nH]c(=O)c3ccccc23)ccc1F)N1CCN(C(=O)C2CC2)CC1 [Olaparib] (partner 8 µM)
How it was run: as §1

Cell Line	relative viability (Gemcitabine + Luminespib; first compound 0.001 µM)	relative viability (Gemcitabine + Luminespib; first compound 0.003162 µM)	relative viability (Gemcitabine + Luminespib; first compound 0.01 µM)	relative viability (Gemcitabine + Luminespib; first compound 0.03162 µM)	relative viability (Gemcitabine + Luminespib; first compound 0.1 µM)	relative viability (Gemcitabine + Lapatinib; first compound 0.001 µM)	relative viability (Gemcitabine + Lapatinib; first compound 0.003162 µM)	relative viability (Gemcitabine + Lapatinib; first compound 0.01 µM)	relative viability (Gemcitabine + Lapatinib; first compound 0.03162 µM)	relative viability (Gemcitabine + Lapatinib; first compound 0.1 µM)	relative viability (Gemcitabine + Decitabine; first compound 0.001 µM)	relative viability (Gemcitabine + Decitabine; first compound 0.003162 µM)	relative viability (Gemcitabine + Decitabine; first compound 0.01 µM)	relative viability (Gemcitabine + Decitabine; first compound 0.03162 µM)	relative viability (Gemcitabine + Decitabine; first compound 0.1 µM)	relative viability (Gemcitabine + Olaparib; first compound 0.001 µM)	relative viability (Gemcitabine + Olaparib; first compound 0.003162 µM)	relative viability (Gemcitabine + Olaparib; first compound 0.01 µM)	relative viability (Gemcitabine + Olaparib; first compound 0.03162 µM)	relative viability (Gemcitabine + Olaparib; first compound 0.1 µM)
NCI-H2087	0.178	0.159	0.14	0.147	0.138	0.9	0.814	0.396	0.17	0.161	0.283	0.307	0.179	0.086	0.0869	0.69	0.413	0.254	0.0942	0.0872
LU99A	0.238	0.306	0.233	0.232	0.266	1.15	1.16	0.932	0.974	1	0.789	1.03	0.816	0.985	0.836	0.255	0.272	0.286	0.226	0.221
NCI-H1355	0.724	0.62	0.24	0.22	0.213	0.884	0.825	0.304	0.153	0.153	0.338	0.294	0.25	0.198	0.191	0.667	0.441	0.141	0.157	0.151
NCI-H520	0.22	0.231	0.224	0.201	0.252	0.901	1.11	0.474	0.186	0.121	0.525	0.48	0.289	0.189	0.198	0.388	0.48	0.174	0.159	0.132
NCI-H661	0.905	0.934	0.694	0.274	0.209	0.618	0.47	0.287	0.216	0.171	0.569	0.582	0.465	0.346	0.237	0.78	0.783	0.655	0.274	0.232
NCI-H650	0.753	0.522	0.185	0.16	0.155	0.606	0.269	0.299	0.149	0.161	0.243	0.237	0.164	0.175	0.153	0.364	0.241	0.113	0.115	0.102
NCI-H647	0.166	0.118	0.0907	0.0871	0.0761	0.742	0.28	0.0986	0.0734	0.0451	0.308	0.257	0.151	0.104	0.0673	0.574	0.103	0.0533	0.0536	0.0389
201T	1.04	1.03	1.04	0.681	0.278	0.981	1.04	1.03	0.942	0.537	0.83	0.87	0.906	0.776	0.446	0.884	0.844	0.826	0.302	0.262
